Patent publication US20230295564A1, “Galectin-9 Specific Binding Agents for Use in Treating Cancer” (Emory University, priority 2020, published 2023)
Like-named read-outs stand apart in the source and are kept apart here.

Legend:
human B-ALL cell lines = experiment: Annexin-V/PI cell death of human B-ALL cell lines pre-conditioned with RPMI, SCM or ACM
Description: Human B-ALL cell lines (Nalm6, REH,) were cultured for 24 hours in unconditioned medium (RPMI), stromal cell-conditioned medium (SCM), or adipocyte-conditioned medium (ACM) and then treated with anti-GAL-9 antibody (αGAL-9 Ab) or an IgG control antibody (IgG ctrl) for an additional 2 days with or without MTX. The percentage of apoptotic and dead cells on day 3 of culture was determined using Annexin-V/ PI staining followed by flow cytometric analysis.
Thus, additional experiments were performed to determine how adipocyte-conditioned medium (ACM)-exposed B-ALL cells responded to chemotherapy treatment. In obese patients, leukemia cells would be exposed to an adipocyte-rich microenvironment prior to chemotherapy administration. To mimic this scenario in vitro, human B-ALL cell lines were pre-treated for 24 hours with unconditioned medium (RPMI), stromal cell-conditioned medium (SCM), or ACM prior to the addition of methotrexate (MTX) for 2 days.

mB-ALL cell cultures = experiment: ACM-induced chemoresistance in mB-ALL cell cultures; assay type: cell-based, murine
[1] = system: murine BCR-ABL+ Arf-/- B-ALL (mB-ALL); conditions: for survival: once weekly from day 7, MTX 0.75 mg/kg, αGAL-9 Ab 1.5 mg/kg
Description: Lean and obese mice were inoculated intravenously with murine Bcr-Abl+ Arf-/- B-ALL cells (mB-ALL). On day 7 post-inoculation, when GFP+ leukemic blasts were detected in the peripheral blood, treatment with DMSO (Vehicle, n=10), 0.75 mg/kg methotrexate (MTX, n=10), 1.5 mg/kg anti-galectin-9 antibody (αGAL-9 Ab, n=10), or (MTX + αGAL-9 Ab) a combined was initiated. Treatments were administered once weekly. Survival was monitored and significance was determined using the log-rank test with “A” representing a statistically significant difference between vehicle and MTX-treated mice, “B” between vehicle and anti-Gal-9 treated groups, and “C” between vehicle and MTX + anti-Gal-9 treated mice.
A murine BCR-ABL+ Arf-/- B-ALL (mB-ALL) model was used to test whether treatment with anti-GAL-9 antibody could be used as a therapy to treat obese mice with B-ALL. […] C57BL/6 mice were maintained on lean and high-fat diets as previously described and then challenged with mB-ALL. Treatment with vehicle, MTX, anti-GAL-9 antibody, or a combination of MTX and anti-GAL-9 antibody was initiated on day 7 after leukemia inoculation, when GFP+ B-ALL cells were detected in the peripheral blood.

CN(Cc1cnc2nc(N)nc(N)c2n1)c1ccc(C(=O)N[C@@H](CCC(=O)O)C(=O)O)cc1 [MTX, methotrexate]
decrease of MTX-induced cell death (human B-ALL cell lines; cultures pre-treated with ACM): 40-70% | MTX-induced cell death, effect of pre-conditioning (human B-ALL cell lines; pre-conditioning with SCM): not impacted | chemoresistance induced by ACM (mB-ALL cell cultures): induced chemoresistance | survival ([1]; lean mice): significantly extended the survival | weight loss ([1]; obese mice): loss substantial weight | survival ([1]; obese mice): not significantly protected

COc1cccc2c1C(=O)c1c(O)c3c(c(O)c1C2=O)C[C@@](O)(C(=O)CO)C[C@@H]3O[C@H]1C[C@H](N)[C@H](O)[C@H](C)O1 [doxorubicin]
resistance induced by exposure to ACM (human B-ALL cell lines): induced resistance | chemoresistance induced by ACM (mB-ALL cell cultures): induced chemoresistance

CC[C@]1(O)C[C@H]2CN(CCc3c([nH]c4ccccc34)[C@@](C(=O)OC)(c3cc4c(cc3OC)N(C=O)[C@H]3[C@@](O)(C(=O)OC)[C@H](OC(C)=O)[C@]5(CC)C=CCN6CC[C@]43[C@@H]65)C2)C1 [vincristine]
resistance induced by exposure to ACM (human B-ALL cell lines): induced resistance
